One assay addresses T1, human CaV3.1 (Homo sapiens, UniProt O43497).
T1 construct: expressed in transfected cells; host or cells: HEK 293T, transient transfection (FuGENE HD)
Put plainly: T-type calcium channel window current FLIPR assay, CaV3.1. Conditions: for IC50: FLIPR window current assay, transiently transfected HEK293T, N = 3, mean ± SEM, read-out: IC50 CaV3.1 (LVA CaVs). The class given is cell-based. The procedure: (§1) The human embryonic kidney 293 (HEK 293) cell lines (from Emmanuel Bourinet, Montpellier, France) stably expressing CaV3.2 or CaV3.3 were cultured under 5% carbon dioxide at 37 °C in Dulbecco’s Modified Eagle Medium (DMEM) Glutamax (Gibco, Life Technologies, Carlsbad, CA, USA) supplemented with 10% (v/v) fetal bovine serum (FBS), 100 U/mL penicillin, 100 μg/mL streptomycin (Gibco, Life Technologies), and 750 μg/mL geneticin (G418) (Gibco, Life Technologies). The Chinese Hamster Ovary (CHO) cell lines (Emmanuel Bourinet, Montpellier, France) expressing CaV3.1 were cultured under 5% carbon dioxide at 37 °C in Alpha Minimum Essential Media (MEM) Glutamax (Gibco, Life Technologies), supplemented with 10% (v/v) fetal bovine serum (FBS) and 300 μg/mL geneticin (G418) (Gibco, Life Technologies). The human neuroblastoma SH-SY5 Y cells (Victor Diaz, Goettingen, Germany) were cultured under 5% carbon dioxide at 37 °C in RPMI 1640 antibiotic-free medium (Invitrogen, Carlsbad, CA, USA), supplemented with 15% FBS and 2 mM GlutaMAX™ (Invitrogen). D-PBS (Gibco, Life Technologies) was used to wash the cells, and 0.25% Trypsin-EDTA (Gibco, Life Technologies) was used to detach cells from the flask surface. They were split in a ratio of 1:5 (ideally 1000 cells/cm^2) when they reached 70%–80% confluence (every 2–3 days). Transiently transfected CaV3.1HEK293 T cells were used in FLIPR Assays. HEK 293 T cells were cultured under 5% carbon dioxide at 37 °C in DMEM supplemented with 10% (v/v) FBS. D-PBS was used to wash the cells, and 0.25% Trypsin-EDTA was used to detach cells from the flask surface. The cells were split and seeded at 6 million cells per T175 flask, to reach 70%–80% confluence after 24 h. The next day, 12 μg DNA of human CaV3.1 was incubated in 900 μL serum-free DMEM with 36 μL FuGENE HD transfection reagent (Promega Corporation, Madison, WI, US) (1:3 DNA/Fugene ratio) for 20 min, and then the mixture was added into the cell flask slowly, drop by drop. After the transfection, the cells were cultured under 5% carbon dioxide at 37 °C for 24 h and then moved to a 28 °C incubator.
(§2) HEK 293 cells stably expressing CaV3.2 or CaV3.3 were seeded into 384-well black wall clear bottom plates (Corning, Lowell, MA, USA) at a density of 30,000 cells per well. Transiently transfected CaV3.1HEK293 T cells were seeded into 384-well black wall clear bottom plates at a density of 60,000 cells per well. Once the cells reached 90%–95% confluence after 24 h, the media were removed from the wells and replaced with 20 μL of 10% calcium 4 dye (Molecular Devices, Sunnyvale, CA, USA) in HBSS-HEPES (containing 5 mM KCl, 10 mM HEPES, 140 mM NaCl, 10 mM glucose, and 0.5 mM CaCl2, pH 7.4) with 0.1% bovine serum albumin (BSA). The cells were incubated for 30 min at 37 °C in the presence of 5% carbon dioxide. Each well on the reagent plates for the first addition contained 15 μL different concentrations of compounds dissolved in HBSS-HEPES containing 0.1% BSA and <0.1% DMSO and was incubated for 20 min after loading. Positive and negative controls contained 15 μL of HBSS-HEPES (0.1% BSA) alone. The plates were placed in the FLIPR^TETRA (Molecular Devices, Sunnyvale, CA, USA) programmed to measure maximum fluorescence intensity following a second addition of the agonist 5 mM CaCl2. The data acquisition parameters were adjusted as follows: Baseline fluorescence of 1500–2000 arbitrary fluorescence units (AFU), emission wavelength of 515–575 nm, and excitation wavelength of 470–495 nm. HBSS-HEPES (0.1% BSA) was used in the second addition as a negative control. One fluorescence reading was taken before the second addition. Then the fluorescence readings were recorded every two seconds for 300 s. Raw fluorescence readings in the form of relative light units were converted to response over baseline using ScreenWorks® (Molecular Devices, version 3.2.0.14) software.
(§3) Data were plotted and analyzed using GraphPad Prism v7.0 (GraphPad Software Inc., San Diego, CA, USA).

For another assay, the target named is CaV3.2 (Homo sapiens, UniProt O95180). Put plainly: T-type calcium channel window current FLIPR assay, CaV3.2. In kind it is cell-based. Particulars: FLIPR window current assay, HEK 293 stable, N = 3, mean ± SEM; read-out: IC50 CaV3.2 (LVA CaVs). The procedure:
as §1, §2, §3

For a further assay, the target named is CaV3.3 (Homo sapiens, UniProt Q9P0X4). The experiment in a line: T-type calcium channel window current FLIPR assay, CaV3.3. In kind it is cell-based. Particulars: for IC50: FLIPR window current assay, HEK 293 stable, N = 3, mean ± SEM, read-out: IC50 CaV3.3 (LVA CaVs). As to the method:
as §1, §2, §3

The next assay has as its target T2, N-type CaV2.2 (Homo sapiens, UniProt Q00975).
T2 construct: endogenous in cells
The experiment in a line: HVA calcium channel FLIPR assay, N-type (SH-SY5Y cells). The class given is cell-based. Particulars: for IC50: 10 µM nifedipine present, N = 3, mean ± SEM, read-out: IC50 CaV2.2 (HVA CaVs). The procedure: as §1
SH-SY5Y cells were seeded into 384-well black wall clear bottom plates at a density of 15,000 cells per well, resulting in 90%–95% confluence after 24 h. The media were then removed from the wells and replaced with 20 μL of 10% calcium 4 dye (Molecular Devices) in physiological salt solution (PSS) (containing 5.9 mM KCl, 1.4 mM MgCl2, 10 mM HEPES, 1.2 mM NaH2 PO4, 5 mM NaHCO3, 140 mM NaCl, 11.5 mM glucose, and 1.8 mM CaCl2, pH 7.4) with 0.1% BSA. […] Positive control on the first reagent plate contained 15 μL of PSS (0.1% BSA), whereas PSS (0.1% BSA) containing 1 µM CVID and 10 µM nifedipine (final concentration) was used as a negative control. The fluorescence readings were recorded and converted as described previously, and agonist containing 90 mM KCl + 5 mM CaCl2 was used in the second addition.
Data were plotted and analyzed using GraphPad Prism v7.0 (GraphPad Software Inc., San Diego, CA, USA). A four-parameter logistic Hill equation with variable Hill coefficients was fitted to the data for concentration-response curves. Data are means ± SEM of n independent experiments. Statistical analysis was performed with a paired Student’s t-test with statistical significance at p < 0.05.

Assay [1] concerns L-type calcium channel (CaV1). The experiment in a line: HVA calcium channel FLIPR assay, L-type (SH-SY5Y cells). Conditions: 1 µM CVID present, N = 3, mean ± SEM, read-out: IC50 CaV1 (HVA CaVs). The class given is cell-based, human. As to the method:
as §1
SH-SY5Y cells were seeded into 384-well black wall clear bottom plates at a density of 15,000 cells per well, resulting in 90%–95% confluence after 24 h. […] The fluorescence readings were recorded and converted as described previously, and agonist containing 90 mM KCl + 5 mM CaCl2 was used in the second addition.
Data were plotted and analyzed using GraphPad Prism v7.0 (GraphPad Software Inc., San Diego, CA, USA). […]

In assay [2] the test system is voltage-gated calcium channels (VGCCs). The experiment in a line: FLIPR cell-based assays on VGCCs (overall statement). More on the design: species or system human. Particulars: all VGCC FLIPR assays (CaV3.1, CaV3.2, CaV3.3, CaV2.2, CaV1). The procedure:
as §2

Assay [3] has as its system T-type calcium channel (CaV3.x). More on the design: method as in PMID 22344687, PMID 19582593. Conditions: activated current generated from the channel-closed state; cited from earlier work.

T1 sequence (O43497 whole entry): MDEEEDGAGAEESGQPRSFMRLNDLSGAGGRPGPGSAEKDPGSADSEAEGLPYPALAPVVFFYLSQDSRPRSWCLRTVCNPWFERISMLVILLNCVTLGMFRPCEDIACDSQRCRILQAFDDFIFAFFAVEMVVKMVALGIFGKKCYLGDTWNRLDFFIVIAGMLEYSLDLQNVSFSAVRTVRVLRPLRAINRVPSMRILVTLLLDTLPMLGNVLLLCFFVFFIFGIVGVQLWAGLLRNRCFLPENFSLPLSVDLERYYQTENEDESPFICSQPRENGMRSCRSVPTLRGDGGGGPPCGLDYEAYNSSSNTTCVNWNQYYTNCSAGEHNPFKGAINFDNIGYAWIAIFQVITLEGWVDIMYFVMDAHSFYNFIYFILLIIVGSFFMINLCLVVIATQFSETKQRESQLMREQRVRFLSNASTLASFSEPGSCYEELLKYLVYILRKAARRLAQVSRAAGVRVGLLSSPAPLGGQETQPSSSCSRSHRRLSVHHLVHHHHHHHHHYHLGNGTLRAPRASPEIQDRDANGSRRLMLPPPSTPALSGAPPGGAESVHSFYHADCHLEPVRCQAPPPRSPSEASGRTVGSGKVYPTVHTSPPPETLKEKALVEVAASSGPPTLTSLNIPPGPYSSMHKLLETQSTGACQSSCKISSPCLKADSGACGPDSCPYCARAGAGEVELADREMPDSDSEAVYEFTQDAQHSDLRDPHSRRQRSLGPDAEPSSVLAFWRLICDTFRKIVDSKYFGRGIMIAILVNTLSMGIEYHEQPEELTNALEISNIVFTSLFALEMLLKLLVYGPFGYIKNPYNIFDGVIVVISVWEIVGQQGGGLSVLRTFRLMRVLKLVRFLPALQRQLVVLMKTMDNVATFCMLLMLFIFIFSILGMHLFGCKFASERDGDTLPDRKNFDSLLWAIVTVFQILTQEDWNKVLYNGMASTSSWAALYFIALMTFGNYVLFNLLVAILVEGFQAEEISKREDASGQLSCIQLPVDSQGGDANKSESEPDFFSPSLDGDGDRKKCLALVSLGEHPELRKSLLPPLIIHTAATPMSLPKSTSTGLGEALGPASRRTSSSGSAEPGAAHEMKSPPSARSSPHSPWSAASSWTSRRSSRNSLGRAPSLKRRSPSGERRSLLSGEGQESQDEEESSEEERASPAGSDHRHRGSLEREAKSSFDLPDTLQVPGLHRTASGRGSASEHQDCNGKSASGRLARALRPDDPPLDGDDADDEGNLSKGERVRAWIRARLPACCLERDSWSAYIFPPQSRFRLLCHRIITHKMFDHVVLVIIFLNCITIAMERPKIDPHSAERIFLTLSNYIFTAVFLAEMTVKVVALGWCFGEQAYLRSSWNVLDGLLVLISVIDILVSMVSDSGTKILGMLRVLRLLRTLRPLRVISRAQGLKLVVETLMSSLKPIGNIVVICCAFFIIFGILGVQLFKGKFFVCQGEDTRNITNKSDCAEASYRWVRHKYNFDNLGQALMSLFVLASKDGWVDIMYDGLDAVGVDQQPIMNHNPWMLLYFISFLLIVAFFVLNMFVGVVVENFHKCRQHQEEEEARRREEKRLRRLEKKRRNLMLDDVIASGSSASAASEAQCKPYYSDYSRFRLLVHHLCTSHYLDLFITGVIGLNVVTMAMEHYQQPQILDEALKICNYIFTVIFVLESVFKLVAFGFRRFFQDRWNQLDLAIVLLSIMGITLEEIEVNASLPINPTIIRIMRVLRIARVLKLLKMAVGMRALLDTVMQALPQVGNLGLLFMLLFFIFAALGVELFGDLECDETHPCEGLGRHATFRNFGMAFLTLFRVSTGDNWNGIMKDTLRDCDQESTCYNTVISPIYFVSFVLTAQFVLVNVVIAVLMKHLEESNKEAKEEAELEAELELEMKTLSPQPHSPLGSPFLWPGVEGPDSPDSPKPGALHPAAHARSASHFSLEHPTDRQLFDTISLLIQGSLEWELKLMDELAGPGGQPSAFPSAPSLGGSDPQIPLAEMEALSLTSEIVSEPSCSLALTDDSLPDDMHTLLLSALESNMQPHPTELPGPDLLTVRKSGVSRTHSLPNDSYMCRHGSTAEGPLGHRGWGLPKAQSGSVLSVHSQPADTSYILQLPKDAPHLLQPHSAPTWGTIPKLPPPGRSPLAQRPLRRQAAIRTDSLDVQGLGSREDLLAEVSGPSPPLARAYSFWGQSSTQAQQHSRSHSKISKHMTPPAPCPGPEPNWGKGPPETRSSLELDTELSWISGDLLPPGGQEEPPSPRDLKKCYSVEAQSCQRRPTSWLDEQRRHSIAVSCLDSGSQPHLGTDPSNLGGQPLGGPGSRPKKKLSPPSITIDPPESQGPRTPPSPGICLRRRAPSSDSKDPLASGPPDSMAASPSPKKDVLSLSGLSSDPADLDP
CaV3.2, sequence (O95180 whole entry): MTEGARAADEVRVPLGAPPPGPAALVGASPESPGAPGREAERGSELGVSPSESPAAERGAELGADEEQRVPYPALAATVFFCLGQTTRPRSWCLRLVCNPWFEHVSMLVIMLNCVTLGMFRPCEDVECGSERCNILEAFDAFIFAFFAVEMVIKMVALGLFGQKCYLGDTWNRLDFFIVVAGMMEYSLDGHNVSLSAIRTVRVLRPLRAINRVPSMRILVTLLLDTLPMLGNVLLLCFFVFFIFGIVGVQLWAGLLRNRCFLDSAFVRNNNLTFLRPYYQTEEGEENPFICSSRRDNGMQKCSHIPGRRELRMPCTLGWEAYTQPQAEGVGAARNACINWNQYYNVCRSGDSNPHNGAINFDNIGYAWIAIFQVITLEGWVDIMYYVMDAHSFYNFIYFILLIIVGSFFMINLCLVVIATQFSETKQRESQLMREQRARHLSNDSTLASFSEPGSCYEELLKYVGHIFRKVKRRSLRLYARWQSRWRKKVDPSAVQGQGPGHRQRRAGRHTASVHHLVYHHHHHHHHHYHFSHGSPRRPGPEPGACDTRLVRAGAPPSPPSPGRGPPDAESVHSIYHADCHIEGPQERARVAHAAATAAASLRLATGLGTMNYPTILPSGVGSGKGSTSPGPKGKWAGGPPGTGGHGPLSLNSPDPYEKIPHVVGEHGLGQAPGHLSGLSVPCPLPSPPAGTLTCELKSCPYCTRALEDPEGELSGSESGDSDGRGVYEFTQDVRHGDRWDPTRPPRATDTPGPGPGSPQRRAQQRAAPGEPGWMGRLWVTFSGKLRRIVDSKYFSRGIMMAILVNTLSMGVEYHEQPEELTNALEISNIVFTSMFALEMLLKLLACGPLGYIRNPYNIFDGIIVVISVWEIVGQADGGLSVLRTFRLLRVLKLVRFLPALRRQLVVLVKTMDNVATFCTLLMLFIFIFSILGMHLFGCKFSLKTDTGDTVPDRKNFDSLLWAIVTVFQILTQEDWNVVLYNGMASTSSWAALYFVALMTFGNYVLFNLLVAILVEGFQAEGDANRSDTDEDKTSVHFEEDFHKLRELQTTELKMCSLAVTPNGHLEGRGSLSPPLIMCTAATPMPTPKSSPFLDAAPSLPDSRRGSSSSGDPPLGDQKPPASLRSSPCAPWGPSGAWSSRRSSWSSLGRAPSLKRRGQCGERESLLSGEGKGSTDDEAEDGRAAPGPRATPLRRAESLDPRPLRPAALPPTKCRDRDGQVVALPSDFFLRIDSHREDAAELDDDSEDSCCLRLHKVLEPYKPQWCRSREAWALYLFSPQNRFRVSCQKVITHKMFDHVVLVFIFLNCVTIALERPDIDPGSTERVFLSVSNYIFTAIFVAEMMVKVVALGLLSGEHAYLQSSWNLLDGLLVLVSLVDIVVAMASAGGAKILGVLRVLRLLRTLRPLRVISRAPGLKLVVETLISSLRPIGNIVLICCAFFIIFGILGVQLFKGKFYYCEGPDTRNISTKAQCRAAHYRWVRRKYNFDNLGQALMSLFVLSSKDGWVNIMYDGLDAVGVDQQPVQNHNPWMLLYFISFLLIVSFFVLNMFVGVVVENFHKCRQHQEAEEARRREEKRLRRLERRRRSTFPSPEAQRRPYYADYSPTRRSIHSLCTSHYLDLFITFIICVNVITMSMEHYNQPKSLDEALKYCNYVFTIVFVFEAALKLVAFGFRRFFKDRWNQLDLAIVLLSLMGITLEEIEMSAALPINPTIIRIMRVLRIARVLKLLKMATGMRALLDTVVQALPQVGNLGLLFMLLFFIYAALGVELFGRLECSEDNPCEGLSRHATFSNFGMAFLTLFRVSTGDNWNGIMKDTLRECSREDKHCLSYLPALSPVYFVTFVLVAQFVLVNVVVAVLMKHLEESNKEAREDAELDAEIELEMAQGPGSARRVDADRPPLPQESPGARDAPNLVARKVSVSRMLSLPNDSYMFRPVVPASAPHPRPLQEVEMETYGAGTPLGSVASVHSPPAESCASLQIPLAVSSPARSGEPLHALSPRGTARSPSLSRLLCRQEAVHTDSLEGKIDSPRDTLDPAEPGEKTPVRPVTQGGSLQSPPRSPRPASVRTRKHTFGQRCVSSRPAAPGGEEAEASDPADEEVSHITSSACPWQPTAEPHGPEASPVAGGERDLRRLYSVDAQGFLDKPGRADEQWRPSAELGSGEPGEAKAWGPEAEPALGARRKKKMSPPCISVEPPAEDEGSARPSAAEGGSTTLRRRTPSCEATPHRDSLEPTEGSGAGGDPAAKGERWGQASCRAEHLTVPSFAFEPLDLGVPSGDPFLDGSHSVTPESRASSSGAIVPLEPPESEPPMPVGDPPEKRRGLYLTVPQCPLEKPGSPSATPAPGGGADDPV

One may read the IC50 as the point on the concentration scale where inhibition reaches its midpoint. One may read the Emax as the greatest response seen or fitted, relative to the assay's reference. As to `CNC(=O)C(NC(=O)C(C)(c1c[nH]c2ccccc12)c1c[nH]c2ccccc12)C(=O)c1c[nH]c2ccccc12` (stereo not drawn) [Compound 1, Pseudellone C], on human CaV3.1 (FLIPR), the “Kind of block of CaV3.1, in words” value was “partial blocking”. Besides, the 50% inhibitory concentration (IC50) at human CaV3.1 stood at 53.5 ± 2.72 µM; at CaV3.2, 44 ± 1.6 µM; at CaV3.3 it was 26.6 ± 1.23 µM; at N-type CaV2.2 (SH-SY5Y), 82.5 ± 7.6 µM; in assay [1], 322 ± 21.6 µM. Moreover, the Emax was determined as 63.6% at human CaV3.1 (FLIPR, n = 3, read-out: Emax, inhibition for CaV3.1) and 39.3% on N-type CaV2.2 (SH-SY5Y, n = 3, read-out: Emax, inhibition for N-type CaV2.2). In addition, at CaV3.3 (FLIPR), the “Further reduced potency for CaV3.3 compared to 2” value is more than 3 fold. The “Kind of block of CaV2.2, in words” value at N-type CaV2.2 is given as “partial blocking”. Besides, the “Inhibition of Ca2+ responses, in words” value in assay [2] is “weak calcium channel blocker”.
As to `CC(C(=O)N[C@@H](Cc1c[nH]c2ccccc12)C(=O)O)(c1c[nH]c2ccccc12)c1c[nH]c2ccccc12` [Compound 3a, (2,2-di(1H-indol-3-yl)propanoyl)-L-tryptophan], the half-inhibitory concentration (IC50) at human CaV3.1 amounted to 122 ± 5.96 µM; on CaV3.2, 80.7 ± 6.21 µM; on CaV3.3, 90.1 ± 4.99 µM; on N-type CaV2.2 (SH-SY5Y) it was 147 ± 1.72 µM; in assay [1], 132 ± 1.63 µM. The “Inhibition of Ca2+ responses, in words” value in assay [2] is reported as “poor inhibition”.
Take `CC(C(=O)O)(c1c[nH]c2ccccc12)c1c[nH]c2ccccc12` [Compound 4, 2,2-di(1H-indol-3-yl)propanoic Acid]: the 50% inhibitory concentration (IC50) was found to be 72.28 ± 0.41 µM on human CaV3.1; 132 ± 6.13 µM at CaV3.2; 119 ± 8.66 µM at CaV3.3; 179 ± 19.7 µM on N-type CaV2.2 (SH-SY5Y); 264 ± 11.9 µM in assay [1]. The “Inhibition of Ca2+ responses, in words” value in assay [2] is given as “poor inhibition”.
For the molecule `CC(C)(C)NC(=O)CN1CCC(CNC(=O)c2cc(F)cc(Cl)c2)CC1` [Compound Z944], the “Potency for T-type window currents versus activated current, in words” value in assay [3] is listed as “better potency for T-type window currents than the activated current”.
As for `C[C@@H](NC(=O)Cc1ccc(C2CC2)cc1)c1ccc(OCC(F)(F)F)cn1` [TTA-A2], in assay [3], the “Potency for T-type window currents versus activated current, in words” value is given as “better potency for T-type window currents than the activated current”.
With `O=c1[nH]c2ccccc2n1C1CCN(CCCC(c2ccc(F)cc2)c2ccc(F)cc2)CC1` [pimozide, reference compound], the IC50 on CaV3.2 came to 4.2 ± 1.06 µM; at CaV3.3, 7.71 ± 0.7 µM.

The values are drawn from paper PMC6315694, “Synthesis of Pseudellone Analogs and Characterization as Novel T-type Calcium Channel Blockers” (Marine Drugs, 2018).
